Data on three compounds can be found in ChEMBL document CHEMBL3421625, “Discovery and optimization of novel antagonists to the human neurokinin-3 receptor for the treatment of sex-hormone disorders (Part I)” (J Med Chem, 2015).

Structures are written as SMILES. pKi: −log10 of the molar value. Where only a bound is given, the exact number is not on record here.

Data set [1] addresses Kappa-type opioid receptor (Homo sapiens) (UniProt P41145). Description: Inhibition of KOR (unknown origin) at 10 uM relative to control.
The target of data set [2] is Adenosine receptor A1 (Homo sapiens) (UniProt P30542). Description: Displacement of [3H]DPCPX from recombinant human adenosine A1 receptor expressed in CHO cells after 60 mins by scintillation counting analysis relative to control. The class given is cell-based. On the technique in general: In a radioligand displacement assay an active substance lowers the binding of a labelled ligand.

Data set [3] deals with Adenosine receptor A3 (Homo sapiens) (UniProt P0DMS8). The data set can be described thus: Inhibition of recombinant human adenosine A3 receptor expressed in HEK293 cells by radioligand displacement assay relative to control. In kind it is cell-based. Particulars: concentration not given here.
Data set [4] has as its target Translocator protein (Homo sapiens) (UniProt P30536). Description: Inhibition of benzodiazepine receptor (unknown origin) by radioligand displacement assay relative to control. The following applies: concentration not given here.
Data set [5] has as its target Gastrin/cholecystokinin type B receptor (Homo sapiens) (UniProt P32239). Description: Inhibition of recombinant human CCK2 receptor expressed in CHO cells by radioligand displacement assay relative to control. The class given is cell-based. The following applies: concentration not given here.
Data set [6] concerns the target Prostaglandin E2 receptor EP4 subtype (Homo sapiens) (UniProt P35408). The data set can be described thus: Inhibition of recombinant human prostanoid receptor EP4 expressed in HEK293 cells by radioligand displacement assay relative to control. In kind it is cell-based. Particulars: concentration not given here.
Data set [7] in a line: Fraction unbound in rat plasma at 5 uM after 4 hrs by equilibrium dialysis method. The class given is ADME, cell-free.
Data set [8] can be described thus: Apparent permeability across apical to basolateral side in human Caco2 cells in presence of 0.1% bovine serum albumin. Particulars: Caco-2. Background: Caco-2 cells form a polarised layer with tight junctions and transporters.
Data set [9] can be described thus: Apparent permeability across basolateral to apical side in human Caco2 cells in presence of 0.1% bovine serum albumin. The following applies: Caco-2.
Data set [10] in a line: Total systemic clearance in Sprague-Dawley rat at 1 mg/kg, iv by LC-MS/MS analysis. Details: dose 1 mg/kg, route intravenous. In kind it is ADME, organism-based. The following applies: in vivo.
Data set [11] concerns Rattus norvegicus. Description: Unbound AUC in Sprague-Dawley rat at 1 mg/kg, iv by LC-MS/MS analysis. Particulars: in vivo. In kind it is ADME, organism-based. The arrangement: dose 1 mg/kg, route intravenous.
The subject of data set [12] is Rattus norvegicus. The data set can be described thus: Unbound AUC in Sprague-Dawley rat at 3 mg/kg, po by LC-MS/MS analysis. In kind it is ADME, organism-based. Details: dose 3 mg/kg, route oral. The following applies: in vivo.
Data set [13] has as its system Rattus norvegicus. Description: Unbound Cmax in Sprague-Dawley rat at 3 mg/kg, po by LC-MS/MS analysis. Particulars: in vivo. In kind it is ADME, organism-based. The arrangement: dose 3 mg/kg, route oral.
Data set [14] in a line: Fraction unbound in rat brain at 5 uM after 4 hrs by equilibrium dialysis method. The class given is ADME, tissue-based. In general terms: Equilibrium dialysis compares concentrations on both sides of a semipermeable membrane.
Data set [15] in a line: in vivo. The following applies: Sprague-Dawley, rat, iv, 1 mg/kg.
Description: Volume of distribution at steady state in Sprague-Dawley rat at 1 mg/kg, iv by LC-MS/MS analysis
Data set [16] can be described thus: in vivo. Particulars: Sprague-Dawley, rat, iv, 1 mg/kg. This is another data set of the same source.
Data set [17] is described as follows: in vivo. Particulars: Sprague-Dawley, rat, po, 3 mg/kg.
Data set [18] is described as follows: in vivo. Particulars: Sprague-Dawley, rat, po, 3 mg/kg. The source holds these as a separate data set.
A short description of data set [19]: Ratio of apparent permeability across apical to basolateral over basolateral to apical side in human Caco2 cells in presence of 0.1% bovine serum albumin. The class given is ADME, cell-based. Particulars: Caco-2.
The target in another data set is T1, Substance-K receptor (Homo sapiens, UniProt P21452).
T1 sequence (P21452 whole entry): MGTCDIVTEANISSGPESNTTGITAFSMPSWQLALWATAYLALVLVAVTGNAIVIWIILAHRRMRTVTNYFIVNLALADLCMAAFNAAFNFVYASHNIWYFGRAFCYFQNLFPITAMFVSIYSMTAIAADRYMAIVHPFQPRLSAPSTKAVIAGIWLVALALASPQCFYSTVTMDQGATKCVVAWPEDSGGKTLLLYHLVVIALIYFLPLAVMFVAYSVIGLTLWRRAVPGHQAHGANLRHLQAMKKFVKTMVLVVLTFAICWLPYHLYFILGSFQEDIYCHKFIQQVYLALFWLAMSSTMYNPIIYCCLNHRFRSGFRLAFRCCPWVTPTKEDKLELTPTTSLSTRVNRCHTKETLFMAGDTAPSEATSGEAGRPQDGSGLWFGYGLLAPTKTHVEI
Description: Displacement of [125I]NKA from human NK2R expressed in CHO cell membranes after 90 mins by scintillation counting analysis.

Chain of Kappa-type opioid receptor (Homo sapiens) (P41145 whole entry): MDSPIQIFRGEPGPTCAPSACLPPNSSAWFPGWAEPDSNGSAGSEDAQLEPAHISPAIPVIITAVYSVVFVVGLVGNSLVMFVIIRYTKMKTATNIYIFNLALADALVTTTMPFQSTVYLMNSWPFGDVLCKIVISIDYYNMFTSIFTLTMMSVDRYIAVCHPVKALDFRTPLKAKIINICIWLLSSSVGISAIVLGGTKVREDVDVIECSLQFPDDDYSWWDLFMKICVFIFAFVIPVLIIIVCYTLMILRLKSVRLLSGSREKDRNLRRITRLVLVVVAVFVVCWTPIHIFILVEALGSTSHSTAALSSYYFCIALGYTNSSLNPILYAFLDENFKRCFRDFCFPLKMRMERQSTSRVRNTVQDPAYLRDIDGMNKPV
Chain of Gastrin/cholecystokinin type B receptor (Homo sapiens) (P32239 whole entry): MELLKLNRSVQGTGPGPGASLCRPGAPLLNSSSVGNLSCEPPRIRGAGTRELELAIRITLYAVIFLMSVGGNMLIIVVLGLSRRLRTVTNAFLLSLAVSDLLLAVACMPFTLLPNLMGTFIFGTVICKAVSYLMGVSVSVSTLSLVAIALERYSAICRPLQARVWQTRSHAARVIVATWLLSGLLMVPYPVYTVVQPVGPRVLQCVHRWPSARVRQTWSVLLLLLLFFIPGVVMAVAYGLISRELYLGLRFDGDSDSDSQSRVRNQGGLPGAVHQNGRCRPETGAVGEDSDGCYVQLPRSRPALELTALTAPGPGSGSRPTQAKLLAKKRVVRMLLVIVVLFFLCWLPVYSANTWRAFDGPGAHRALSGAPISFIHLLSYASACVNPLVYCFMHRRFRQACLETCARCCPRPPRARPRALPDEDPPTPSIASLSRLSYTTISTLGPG
Chain of Translocator protein (Homo sapiens) (P30536 whole entry): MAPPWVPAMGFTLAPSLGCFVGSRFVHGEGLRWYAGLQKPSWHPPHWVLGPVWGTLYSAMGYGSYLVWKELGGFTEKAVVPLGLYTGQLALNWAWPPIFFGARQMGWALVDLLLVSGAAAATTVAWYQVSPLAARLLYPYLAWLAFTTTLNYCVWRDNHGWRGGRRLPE
Chain of Adenosine receptor A1 (Homo sapiens) (P30542 whole entry): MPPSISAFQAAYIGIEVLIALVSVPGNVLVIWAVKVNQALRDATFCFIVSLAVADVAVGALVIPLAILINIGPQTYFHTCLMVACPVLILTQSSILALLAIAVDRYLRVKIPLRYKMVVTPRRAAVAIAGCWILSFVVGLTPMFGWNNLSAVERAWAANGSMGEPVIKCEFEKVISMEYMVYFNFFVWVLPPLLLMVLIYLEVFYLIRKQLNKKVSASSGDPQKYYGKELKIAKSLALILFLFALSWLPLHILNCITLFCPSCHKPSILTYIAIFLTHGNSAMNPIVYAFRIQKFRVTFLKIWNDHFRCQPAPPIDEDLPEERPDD
Chain of Adenosine receptor A3 (Homo sapiens) (P0DMS8 whole entry): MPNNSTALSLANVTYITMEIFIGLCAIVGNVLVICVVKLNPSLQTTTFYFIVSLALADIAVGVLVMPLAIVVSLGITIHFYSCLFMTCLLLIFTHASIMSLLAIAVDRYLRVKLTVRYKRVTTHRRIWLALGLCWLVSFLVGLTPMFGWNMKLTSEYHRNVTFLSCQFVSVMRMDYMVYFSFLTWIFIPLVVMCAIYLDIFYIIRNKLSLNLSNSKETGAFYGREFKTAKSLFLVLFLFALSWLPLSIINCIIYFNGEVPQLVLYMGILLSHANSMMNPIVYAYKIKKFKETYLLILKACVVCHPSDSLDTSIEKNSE
Chain of Prostaglandin E2 receptor EP4 subtype (Homo sapiens) (P35408 whole entry): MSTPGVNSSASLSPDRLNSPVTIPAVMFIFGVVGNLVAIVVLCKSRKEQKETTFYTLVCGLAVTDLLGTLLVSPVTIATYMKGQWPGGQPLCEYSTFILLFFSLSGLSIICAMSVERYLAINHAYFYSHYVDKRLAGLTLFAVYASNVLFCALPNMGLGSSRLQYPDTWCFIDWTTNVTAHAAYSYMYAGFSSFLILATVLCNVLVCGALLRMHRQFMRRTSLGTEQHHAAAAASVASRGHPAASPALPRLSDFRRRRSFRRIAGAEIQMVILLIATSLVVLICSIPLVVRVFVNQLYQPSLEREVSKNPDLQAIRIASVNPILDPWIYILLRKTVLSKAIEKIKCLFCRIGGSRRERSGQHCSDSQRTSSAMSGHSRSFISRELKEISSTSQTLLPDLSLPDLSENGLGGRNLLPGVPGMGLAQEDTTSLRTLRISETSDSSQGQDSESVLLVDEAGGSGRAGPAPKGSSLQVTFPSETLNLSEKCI

For orientation: inhibition means the drop in the measured response relative to a control, in per cent. By fraction unbound is commonly meant free concentration divided by total concentration. Lower therefore signals extensive binding. By Papp A→B is commonly meant how fast a substance crosses the layer from the apical side. As a reminder, the Papp B→A is how fast a substance crosses the layer from the basolateral side. For orientation: clearance means the rate of elimination divided by the concentration. Low readings indicate a low capacity for elimination, high ones a high capacity for elimination. As usually defined, the Vd is a proportionality between amount in the body and measured concentration, not a real space. Low values mean little distribution into tissue, high ones wide distribution into tissue. The half-life is the time needed for the level to fall by half in the phase considered. Low readings indicate fast loss, high ones slow loss. The term Tmax denotes the time at which the peak concentration occurs. A word on the bioavailability: it is dose-corrected exposure relative to a reference, in per cent. High values mean good availability, low ones poor availability. Consider `CC[C@H](NC(=O)c1c(O)c(-c2ccccc2)nc2ccccc12)c1ccccc1` [TALNETANT], for which the inhibition in [1] is 12%; in data set [2] it was over 60%; in data set [3] it was over 60%; in data set [4], over 60%; in data set [5], over 60%; in [6] it was over 60%. Also, the fraction unbound at 4 h, 5 µM in [7] is 0.0003; in data set [14], 0.01. Moreover, the Papp A→B in [8] turned out to be 87.2 ×10⁻⁶ cm/s. Moreover, the apparent permeability from basolateral to apical (Papp B→A) in data set [9] came out at 98.5 ×10⁻⁶ cm/s. This compound registered a clearance in data set [10] of 2 mL/min/kg. The fAUC in the data set with Rattus norvegicus [11] was 0.5 µM·min; with Rattus norvegicus [12], 0.7 µM·min. For the same compound, the fCmax with Rattus norvegicus [13] was 2.65 nM. Further, the Vd in the data set “in vivo [15]” was determined as 1.5 L/kg. In the data set “in vivo [16]”, this compound came in with a half-life of 7.47 h. Also, the Tmax in the data set “in vivo [17]” was 1 h. The compound also showed a bioavailability in “in vivo [18]” of 47%.
Take `CC(C)NCC(O)COc1cccc2ccccc12` (configuration not stated) [PROPRANOLOL]: the Papp A→B in data set [8] is at least 45 ×10⁻⁶ cm/s. Further, in [9], the Papp B→A was at least 45 ×10⁻⁶ cm/s. Moreover, in [19], the Ratio is listed as 1.
The term pKi denotes −log10 of the Ki, conventionally taken in molar units. Lower therefore signals a high Ki. `CSCC[C@H](NC(=O)[C@H](CC(C)C)NC(=O)CNC(=O)[C@H](Cc1ccccc1)N(C)C(=O)[C@H](Cc1ccccc1)NC(=O)[C@H](CC(=O)O)NC(=O)CCC(=O)O)C(N)=O` [SENKTIDE] showed a negative-log Ki (pKi) on Substance-K receptor of under 5.00.
